Experimental data reported in patent US20250275966A1, “GABAA RECEPTOR MODULATOR SALTS, PARTICLES, AND USES THEREOF” (Engrail Therapeutics, Inc., priority 2022, published 2025).
In brackets after ≈: the same amount, converted by molar mass. Structures can show the parent of a compound that is named as a salt.

Columns and labels:
[1] = Pharmacokinetic analysis of Compound 1 and its salts after oral capsule administration (Example 4); format: in vivo, cynomolgus monkeys; conditions: single PO capsule, 30 mg/kg
Experimental: A pharmacokinetic analysis was performed comparing administration of Compound 1 with certain salts of Compound 1 after oral (PO) administration in 3 male cynomolgus monkeys. The subjects received a single PO oral gavage of active pharmaceutical ingredient (API) (e.g., Compound 1 fumarate, Compound 1 sulfate, Compound 1 hydrochloride, Compound 1 phosphate, Compound 1 tosylate, Compound 1 malonate, Compound 1 maleate, or Compound 1 free base) in a capsule at a dose of 30 mg/kg. Following dose administration, the animals were flushed with approximately 10 milliliters of tap water to ensure all API was administered. Animals were observed twice daily and at sample collection time-points for any abnormal clinical and behavioral signs. Body weights were taken prior to dosing and weekly thereafter until study termination. Blood samples (0.5 mL) were collected pre-dose, 15 minutes, 30 minutes, and 1, 2, 4, 6, 8, 10, 12, and 24 hours post-dose. Each blood sample was collected from the monkey's femoral, saphenous or other available vein via direct venipuncture, placed into a polypropylene tube containing K2EDTA as the anticoagulant, and gently inverted several times to mix. The blood samples were kept on wet ice until centrifugation. Blood was centrifuged within 10 minutes of collection. The samples were centrifuged at a temperature of 4° C., at 3,000 g, for 5 minutes. The resulting plasma (˜0.25 mL) was divided into two equal aliquots (125 μL each) into polypropylene tubes, designated as Set A and Set B, after centrifugation. Plasma samples designated for certain metabolites (Set A) were treated with 12.5 μL of 2 M ascorbic acid (plasma: ascorbic acid=[…], v:v) prepared beforehand by combining 0.352 g of ascorbic acid into 1 mL of sterile water in a glass vial and mixing thoroughly. […] Once plasma was prepared, the samples were snap frozen on dry ice. All plasma samples were stored frozen below −70° C. until analyzed.

[2] = Intrinsic dissolution rate and solubility in 0.1 N HCl with 1% Tween 80 (USP <1087>); format: physicochemical; conditions: 0.1 N HCl with 1% Tween 80, 37° C.; for Solubility, time point 15 min / Solubility, time point 30 min / Solubility, time point 45 min / Solubility, time point 60 min / Solubility, time point 75 min / Solubility, time point 90 min / Solubility, time point 105 min / Solubility, time point 120 min: 500 mL, pellet about 75 mg; for Intrinsic Dissolution Rate IDR: paddle 100 rpm, die surface 0.5 cm^2; for Solubility, Cumulative: sum of the 15-120 min time points
Experimental: The intrinsic dissolution rate was determined by forming compacted pellets of approximately 75 mg of API using a compression force of 1200 pounds of force, and each pellet (die surface area: 0.5 cm^2) was immersed into a flat bottom vessel containing 500 mL of medium (aqueous 0.1 N HCl with 1% Tween 80 (polyoxyethylene (20) sorbitan monooleate)), using a Distek 2100A dissolution bath, and Distek Circulator/heater (set to 37° C.), with a paddle speed of 100 rpm. An aliquot of the sample (1 mL) was pulled from dissolution media at 15, 30, 45, 60, 75, 90, 105, and 120 minutes, filtered, and analyzed by HPLC. The slope of the dissolution profile corresponded to an intrinsic dissolution rate of hemi-fumarate salt Form B of 6.2 μg/(min·cm^2) as compared to 8.9 μg/(min·cm^2) for Compound 1 (free base). Determination of intrinsic dissolution rate (IDR) was performed for Compound 1 and seven different salts of Compound 1 according to USP <1087> in 0.1 N hydrochloric acid with 1% Tween 80 (Polyoxyethylene […] sorbitan monooleate). Compacted pellets containing approximately 75 mg API were prepared using a compression force of 1200 pounds of force, and each pellet (die surface area: 0.5 cm^2) was immersed into a flat bottom vessel containing 500 mL of medium, using a Distek 2100A dissolution bath, and Distek Circulator/heater (set to 37° C.), with a paddle speed of 100 rpm. An aliquot of the sample (1 mL) was pulled from dissolution media at 15, 30, 45, 60, 75, 90, 105, and 120 minutes, filtered, and analyzed by HPLC. HPLC for IDR and solid-state stability analyses were conducted with an Agilent 1260 Infinity system equipped with a G1311B Quad pump, […] Autosampler, G1330B auto-sampler thermostat, G1316A Thermostatted Column Compartment with a column switch valve, and […] diode array detector.

[3] = 3 male cynomolgus monkeys, plasma Compound 1
[4] = 3 male cynomolgus monkeys, plasma Compound 1, listed as Free base
[5] = listed as Compound 1 (parent free base)

[2H]C([2H])([2H])C(c1cc2nnc(-c3cc(F)ccc3F)n2nc1OCc1ncnn1C)(C([2H])([2H])[2H])C([2H])([2H])[2H] [Maleate Salt, 3-(2,5-difluorophenyl)-7-[1,1-di(methyl-d3)ethyl-2,2,2-d3]-6-[(1-methyl-1H-1,2,4-triazol-5-yl)methoxy]-1,2,4-triazolo[4,3-b]pyridazine]
AUClast [1, 3]: 20575 ng·h/mL
Cmax [1, 3]: 1388 ng/mL
Tmax [1, 3]: 12.0 h
Solubility, time point 15 min [2]: 0.245 µg/mL
Solubility, time point 30 min [2]: 0.36 µg/mL
Solubility, time point 45 min [2]: 0.462 µg/mL
Solubility, time point 60 min [2]: 0.567 µg/mL
Solubility, time point 75 min [2]: 0.681 µg/mL
Solubility, time point 90 min [2]: 0.791 µg/mL
Solubility, time point 105 min [2]: 0.941 µg/mL
Solubility, time point 120 min [2]: 1.01 µg/mL
Intrinsic Dissolution Rate IDR [2]: 7.3 μg/(min · cm^2)
Solubility, Cumulative [2]: 5.057 µg/mL

[2H]C([2H])([2H])C(c1cc2nnc(-c3cc(F)ccc3F)n2nc1OCc1ncnn1C)(C([2H])([2H])[2H])C([2H])([2H])[2H] [Malonate Salt, 3-(2,5-difluorophenyl)-7-[1,1-di(methyl-d3)ethyl-2,2,2-d3]-6-[(1-methyl-1H-1,2,4-triazol-5-yl)methoxy]-1,2,4-triazolo[4,3-b]pyridazine]
AUClast [1, 3]: 24694 ng·h/mL
Cmax [1, 3]: 2010 ng/mL
Tmax [1, 3]: 4.7 h
Solubility, time point 15 min [2]: 0.352 µg/mL
Solubility, time point 30 min [2]: 0.454 µg/mL
Solubility, time point 45 min [2]: 0.579 µg/mL
Solubility, time point 60 min [2]: 0.68 µg/mL
Solubility, time point 75 min [2]: 0.757 µg/mL
Solubility, time point 90 min [2]: 0.87 µg/mL
Solubility, time point 105 min [2]: 1.04 µg/mL
Solubility, time point 120 min [2]: 1.05 µg/mL
Intrinsic Dissolution Rate IDR [2]: 6.9 μg/(min · cm^2)
Solubility, Cumulative [2]: 5.782 µg/mL

[2H]C([2H])([2H])C(c1cc2nnc(-c3cc(F)ccc3F)n2nc1OCc1ncnn1C)(C([2H])([2H])[2H])C([2H])([2H])[2H] [Compound 1, 3-(2,5-difluorophenyl)-7-[1,1-di(methyl-d3)ethyl-2,2,2-d3]-6-[(1-methyl-1H-1,2,4-triazol-5-yl)methoxy]-1,2,4-triazolo[4,3-b]pyridazine]
Cmax [1, 3]: 1550 ng/mL
AUClast [1, 4]: 25463 ng·h/mL
Tmax [1, 4]: 4.0 h
AUClast ([1]; male cynomolgus monkeys): 25463 ng·h/mL
Solubility, time point 15 min [2, 5]: 0.413 µg/mL (≈ 1.01 µM)
Solubility, time point 30 min [2, 5]: 0.464 µg/mL (≈ 1.14 µM)
Solubility, time point 45 min [2, 5]: 0.641 µg/mL (≈ 1.57 µM)
Solubility, time point 60 min [2, 5]: 0.823 µg/mL (≈ 2.01 µM)
Solubility, time point 75 min [2, 5]: 0.89 µg/mL (≈ 2.18 µM)
Solubility, time point 90 min [2, 5]: 1.026 µg/mL (≈ 2.51 µM)
Solubility, time point 105 min [2, 5]: 1.23 µg/mL (≈ 3.01 µM)
Solubility, time point 120 min [2, 5]: 1.31 µg/mL (≈ 3.21 µM)
Intrinsic Dissolution Rate IDR ([2]; listed as Compound 1 (free base)): 8.9 μg/(min · cm^2)
Intrinsic Dissolution Rate IDR [2, 5]: 8.9 μg/(min · cm^2)
Solubility, Cumulative [2, 5]: 6.797 µg/mL (≈ 16.6 µM)

[2H]C([2H])([2H])C(c1cc2nnc(-c3cc(F)ccc3F)n2nc1OCc1ncnn1C)(C([2H])([2H])[2H])C([2H])([2H])[2H] [Sulfate Salt, 3-(2,5-difluorophenyl)-7-[1,1-di(methyl-d3)ethyl-2,2,2-d3]-6-[(1-methyl-1H-1,2,4-triazol-5-yl)methoxy]-1,2,4-triazolo[4,3-b]pyridazine]
AUClast [1, 3]: 18231 ng·h/mL
Cmax [1, 3]: 1151 ng/mL
Tmax [1, 3]: 4.0 h
Solubility, time point 15 min [2]: 0.316 µg/mL
Solubility, time point 30 min [2]: 0.364 µg/mL
Solubility, time point 45 min [2]: 0.453 µg/mL
Solubility, time point 60 min [2]: 0.569 µg/mL
Solubility, time point 75 min [2]: 0.668 µg/mL
Solubility, time point 90 min [2]: 0.772 µg/mL
Solubility, time point 105 min [2]: 0.944 µg/mL
Solubility, time point 120 min [2]: 1.06 µg/mL
Intrinsic Dissolution Rate IDR [2]: 7.1 μg/(min · cm^2)
Solubility, Cumulative [2]: 5.146 µg/mL

[2H]C([2H])([2H])C(c1cc2nnc(-c3cc(F)ccc3F)n2nc1OCc1ncnn1C)(C([2H])([2H])[2H])C([2H])([2H])[2H] [Tosylate Salt, 3-(2,5-difluorophenyl)-7-[1,1-di(methyl-d3)ethyl-2,2,2-d3]-6-[(1-methyl-1H-1,2,4-triazol-5-yl)methoxy]-1,2,4-triazolo[4,3-b]pyridazine]
AUClast [1, 3]: 23248 ng·h/mL
Cmax [1, 3]: 1629 ng/mL
Tmax [1, 3]: 10.7 h
Solubility, time point 15 min [2]: 0.56 µg/mL
Solubility, time point 30 min [2]: 0.638 µg/mL
Solubility, time point 45 min [2]: 0.755 µg/mL
Solubility, time point 60 min [2]: 0.88 µg/mL
Solubility, time point 75 min [2]: 1.02 µg/mL
Solubility, time point 90 min [2]: 1.15 µg/mL
Solubility, time point 105 min [2]: 1.43 µg/mL
Solubility, time point 120 min [2]: 1.39 µg/mL
Intrinsic Dissolution Rate IDR [2]: 8.7 μg/(min · cm^2)
Solubility, Cumulative [2]: 7.823 µg/mL

[2H]C([2H])([2H])C(c1cc2nnc(-c3cc(F)ccc3F)n2nc1OCc1ncnn1C)(C([2H])([2H])[2H])C([2H])([2H])[2H] [Phosphate Salt, 3-(2,5-difluorophenyl)-7-[1,1-di(methyl-d3)ethyl-2,2,2-d3]-6-[(1-methyl-1H-1,2,4-triazol-5-yl)methoxy]-1,2,4-triazolo[4,3-b]pyridazine]
AUClast [1, 3]: 18378 ng·h/mL
Cmax [1, 3]: 1096 ng/mL
Tmax [1, 3]: 5.3 h
Solubility, time point 15 min [2]: 0.358 µg/mL
Solubility, time point 30 min [2]: 0.375 µg/mL
Solubility, time point 45 min [2]: 0.449 µg/mL
Solubility, time point 60 min [2]: 0.543 µg/mL
Solubility, time point 75 min [2]: 0.615 µg/mL
Solubility, time point 90 min [2]: 0.769 µg/mL
Solubility, time point 105 min [2]: 0.912 µg/mL
Solubility, time point 120 min [2]: 0.11 µg/mL
Intrinsic Dissolution Rate IDR [2]: 7.0 μg/(min · cm^2)
Solubility, Cumulative [2]: 4.131 µg/mL
